Results: the CheMixHub viscosity set

Assay: xn = mol fraction of the nth substance listed

C[N+](C)(C)C[C@H](O)CC(=O)[O-] + O=C1O[C@H]([C@@H](O)CO)C(O)=C1O
Details	viscosity [mPa·s]
298.15 K, 101.33 kPa, x2 = 0.7	423.5

C[N+](C)(C)C[C@H](O)CC(=O)[O-] + O=C(O)CC(O)(CC(=O)O)C(=O)O
Details	viscosity [mPa·s]
298.15 K, 101.33 kPa, x2 = 0.4	896.5

CCCC(=O)O + O=[N+]([O-])c1ccccc1
viscosity [mPa·s], 101 kPa
Details	x2 = 0.1103	x2 = 0.2181	x2 = 0.3235	x2 = 0.4266	x2 = 0.5274	x2 = 0.6259	x2 = 0.7225	x2 = 0.8169	x2 = 0.9094
298.15 K	1.829	1.83	1.837	1.841	1.837	1.82	1.786	1.732	1.653
308.15 K	1.531	1.564	1.59	1.604	1.603	1.582	1.539	1.473	1.381
318.15 K	1.355	1.458	1.527	1.56	1.559	1.523	1.455	1.354	1.22

COCCO + OCCO
viscosity [mPa·s], 101 kPa
Details	x2 = 0.1359	x2 = 0.2614	x2 = 0.3776	x2 = 0.4859	x2 = 0.5861	x2 = 0.6799	x2 = 0.7676	x2 = 0.8499	x2 = 0.9272
293.15 K	2.281	3.192	3.871	5.319	6.607	8.77	10.8	14	17.35
298.15 K	2.034	2.799	3.383	4.577	5.633	7.281	9.021	11.5	14.18
303.15 K	1.826	2.471	2.981	3.965	4.84	6.282	7.583	9.579	11.66
308.15 K	1.652	2.2	2.644	3.468	4.194	5.372	6.436	8.035	9.727
313.15 K	1.494	1.97	2.364	3.051	3.663	4.643	5.522	6.84	8.193
318.15 K	1.359	1.775	2.14	2.718	3.218	4.04	4.701	5.855	6.98
323.15 K	1.241	1.604	1.938	2.399	2.851	3.547	4.102	5.049	5.979

CCCC[N+](CCCC)(CCCC)Cc1ccccc1.[Cl-] + OCCOCCO
Details	viscosity [mPa·s]
293.15 K, 100 kPa, x1 = 0.25	433.5

CC(=O)OC(C)C + c1ccccc1
308.15 K, 101 kPa
Details	viscosity [mPa·s]
x2 = 0.0634	0.4362
x2 = 0.2053	0.4409
x2 = 0.3085	0.4455
x2 = 0.4037	0.4502
x2 = 0.5044	0.4564
x2 = 0.6051	0.4587
x2 = 0.6985	0.4735
x2 = 0.8005	0.4854
x2 = 0.9366	0.502

CC(O)=S + c1ccccc1
298.1 K, 101 kPa
Details	viscosity [mPa·s]
x1 = 0.2	0.584
x1 = 0.4	0.584
x1 = 0.5	0.589
x1 = 0.6	0.599
x1 = 0.8	0.631

CCCC(=O)O + c1ccccc1
298.15 K, 101 kPa
Details	viscosity [mPa·s]
x1 = 0.04	0.612
x1 = 0.09	0.624
x1 = 0.14	0.639
x1 = 0.18	0.656
x1 = 0.37	0.747
x1 = 0.47	0.808
x1 = 0.57	0.903
x1 = 0.78	1.1

CCCCBr + c1ccccc1
101 kPa
Details	viscosity [mPa·s]
298.15 K, x1 = 0.066	0.588
298.15 K, x1 = 0.1	0.583
298.15 K, x1 = 0.134	0.574
308.15 K, x1 = 0.066	0.518
308.15 K, x1 = 0.1	0.515
308.15 K, x1 = 0.134	0.51
308.15 K, x2 = 0.094	0.5122
308.15 K, x2 = 0.2084	0.5022
308.15 K, x2 = 0.2997	0.4939
308.15 K, x2 = 0.395	0.4879
308.15 K, x2 = 0.5053	0.4828
308.15 K, x2 = 0.5954	0.4805
308.15 K, x2 = 0.6993	0.4823
308.15 K, x2 = 0.8012	0.4853
308.15 K, x2 = 0.9023	0.4943
318.15 K, x1 = 0.066	0.459
318.15 K, x1 = 0.1	0.457
318.15 K, x1 = 0.134	0.454
323.15 K, x1 = 0.066	0.432
323.15 K, x1 = 0.1	0.431
323.15 K, x1 = 0.134	0.428

CCCCNCCCC + c1ccccc1
viscosity [mPa·s], 101 kPa
Details	x1 = 0.01077	x1 = 0.02009	x1 = 0.02993	x1 = 0.03893	x1 = 0.04865	x1 = 0.05929	x1 = 0.06883	x1 = 0.07963	x1 = 0.08917
303.15 K	0.5674	0.5699	0.5746	0.5771	0.5809	0.584	0.5864	0.5907	0.5931
313.15 K	0.4959	0.4998	0.503	0.5067	0.511	0.5134	0.515	0.5177	0.5198

CCOC(=O)C(=O)OCC + c1ccccc1
303.15 K, 101 kPa
Details	viscosity [mPa·s]
x1 = 0.0682	0.5918
x1 = 0.1415	0.6316
x1 = 0.2203	0.6727
x1 = 0.3054	0.7255
x1 = 0.3972	0.7942
x1 = 0.4972	0.8854
x1 = 0.6066	1.009
x1 = 0.7258	1.164
x1 = 0.8557	1.374

COCCO + c1ccccc1
viscosity [mPa·s]
Details	298.15 K	303.15 K	308.15 K
101 kPa, x1 = 0.0543	0.624	–	0.541
101 kPa, x1 = 0.1499	0.669	–	0.571
101 kPa, x1 = 0.2235	0.708	–	0.598
101 kPa, x1 = 0.3508	0.788	–	0.654
101 kPa, x1 = 0.4496	0.862	–	0.707
101 kPa, x1 = 0.4961	0.902	–	0.735
101 kPa, x1 = 0.5462	0.947	–	0.768
101 kPa, x1 = 0.6455	1.049	–	0.842
101 kPa, x1 = 0.7524	1.18	–	0.938
101 kPa, x1 = 0.8509	1.323	–	1.043
101 kPa, x1 = 0.9558	1.505	–	1.177
101.33 kPa, x1 = 0.1174	–	0.599	–
101.33 kPa, x1 = 0.1933	–	0.628	–
101.33 kPa, x1 = 0.2642	–	0.659	–
101.33 kPa, x1 = 0.3837	–	0.728	–
101.33 kPa, x1 = 0.4988	–	0.807	–
101.33 kPa, x1 = 0.654	–	0.945	–
101.33 kPa, x1 = 0.7474	–	1.049	–
101.33 kPa, x1 = 0.843	–	1.188	–
101.33 kPa, x1 = 0.8998	–	1.246	–

CCCC(=O)O + c1ccncc1
293.15 K, 101 kPa
Details	viscosity [mPa·s]
x2 = 0.152	3.474
x2 = 0.256	3.89
x2 = 0.429	3.36
x2 = 0.528	2.674
x2 = 0.642	1.996
x2 = 0.818	1.29
